Test results from PMC4038024 (Clinical pharmacology and therapeutics, 2012).
“Also recorded” adds a separate entry of the source. Like-named read-outs stand apart in the source and are kept apart here.

Legend:
[1] = for mean AUCmetabolite/AUCparent ratio, fold higher in CYP3A5 expressors than nonexpressors: blood, after oral tacrolimus; for CLurinary (based on AUCblood) / CLurinary (based on AUCplasma): 0 to 96-hour collection; for total amount of tacrolimus excreted in urine as unchanged drug over 96 hours: oral administration
[2] = system: mouse mixed lymphocyte reaction; conditions: compared with tacrolimus; cited from earlier work
CYP3A5 [3] = biological target: CYP3A5 (Homo sapiens, UniProt P20815); experiment: Metabolic clearance by CYP3A5; conditions: compared with tacrolimus; Supplemental Figure 1
[4] = isolated perfused rat kidney; cited from earlier work
CYP3A5 [5] = conditions: cited from earlier work
[6] = In vitro unbound fraction of tacrolimus in plasma and whole blood; assay type: in vitro ADME; conditions: whole blood
[7] = set-up: species or system human; conditions: for k(2,1) (glomerular filtration of tacrolimus) / k(3,1) (secretion from efferent arteriole to renal epithelium): derived from estimated parameters; for fub (exchangeable fraction of tacrolimus in blood during glomerular filtration): ordinary least-squares estimation; for Kp: human, kidney/blood, oral, 5 mg, Kp,kidney (apparent tissue-to-blood partitioning coefficient), empirical Bayesian estimation
[8] = male rats, tacrolimus orally for four days; cited from earlier work
clinical = conditions: human, 5 mg; for half-life: blood, po, single oral dose 5 mg; for concentration at 96 h: whole blood, oral, Clast, blood concentration at 96 hour

Sequence of CYP3A5 (Homo sapiens, UniProt P20815) (P20815 whole entry, the tested form may be a part): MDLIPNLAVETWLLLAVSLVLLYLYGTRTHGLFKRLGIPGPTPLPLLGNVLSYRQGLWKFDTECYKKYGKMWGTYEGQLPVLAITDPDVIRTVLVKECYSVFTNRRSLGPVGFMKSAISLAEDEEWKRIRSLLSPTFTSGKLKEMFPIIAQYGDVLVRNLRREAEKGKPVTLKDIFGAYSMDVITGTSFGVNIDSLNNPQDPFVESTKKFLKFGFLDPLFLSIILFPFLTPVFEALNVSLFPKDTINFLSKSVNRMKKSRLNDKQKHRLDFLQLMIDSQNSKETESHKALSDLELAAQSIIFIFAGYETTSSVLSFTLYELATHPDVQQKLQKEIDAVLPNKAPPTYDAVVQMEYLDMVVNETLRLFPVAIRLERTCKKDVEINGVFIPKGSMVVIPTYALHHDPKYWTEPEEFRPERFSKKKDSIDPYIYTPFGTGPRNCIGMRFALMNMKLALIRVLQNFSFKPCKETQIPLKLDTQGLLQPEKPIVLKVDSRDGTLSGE

## C=CCC1C=C(C)CC(C)CC(OC)C2OC(O)(C(=O)C(=O)N3CCCCC3C(=O)OC(C(C)=CC3CCC(O)C(OC)C3)C(C)C(O)CC1=O)C(C)CC2O (centres unmarked) [13-DMT, 13-O-desmethyl tacrolimus]
[1]
  mean AUCmetabolite/AUCparent ratio, fold higher in CYP3A5 expressors than nonexpressors: 2.0 fold

## C=CCC1C=C(C)CC(C)CC(O)C2OC(O)(C(=O)C(=O)N3CCCCC3C(=O)OC(C(C)=CC3CCC(O)C(OC)C3)C(C)C(O)CC1=O)C(C)CC2OC (centres unmarked) [15-DMT, 15-O-desmethyl tacrolimus]
[1]; CYP3A5 expressors vs nonexpressors
  renal excretion in the two genotyped groups: similar
[1]
  mean AUCmetabolite/AUCparent ratio, fold higher in CYP3A5 expressors than nonexpressors: did not differ; also recorded: similar

## C=CCC1C=C(C)CC(C)CC(OC)C2OC(O)(C(=O)C(=O)N3CCCCC3C(=O)OC(C(C)=CC3CCC(O)C(O)C3)C(C)C(O)CC1=O)C(C)CC2OC (centres unmarked) [31-DMT, 31-O-desmethyl tacrolimus]
[2]
  immunosuppressive activity: same immunosuppressive activity as tacrolimus
CYP3A5 [3]
  metabolic clearance by CYP3A5: comparable to that of tacrolimus
[1]
  mean AUCmetabolite/AUCparent ratio, fold higher in CYP3A5 expressors than nonexpressors: 2.5 fold

## CCOC(=O)[C@H](CCc1ccccc1)N[C@@H](C)C(=O)N1CCC[C@H]1C(=O)O [enalapril]
[4]
  urinary clearance following inhibition of hydrolysis to enalaprilate by paraoxon: increased

## Cc1ncc2n1-c1ccc(Cl)cc1C(c1ccccc1F)=NC2 [midazolam]
CYP3A5 [5]
  hydroxylation activity, fold higher in CYP3A5*1/*3 than CYP3A5*3/*3 kidney microsomes: 18 fold

## C=CC[C@@H]1/C=C(\C)C[C@H](C)C[C@H](OC)[C@H]2O[C@@](O)(C(=O)C(=O)N3CCCC[C@H]3C(=O)O[C@H](/C(C)=C/[C@@H]3CC[C@@H](O)[C@H](OC)C3)[C@H](C)[C@@H](O)CC1=O)[C@H](C)C[C@@H]2OC [tacrolimus]
CYP3A5 [5]
  hydroxylation activity, fold higher in CYP3A5*1/*3 than CYP3A5*3/*3 kidney microsomes: 18 fold
[6]
  fraction unbound: 0.00078 ± 0.00026
[7]
  ER greater than fub′: ~ 400 fold
[7]; CYP3A5 expressors
  ER (extraction ratio of tacrolimus from the efferent arteriole): 5.1 ± 3.0%
  k(0,3) (rate constant, CYP3A5-mediated intra-epithelial metabolism): 0.55 ± 0.52 h⁻¹
  k(1,3) (back flux from renal epithelium to efferent arteriole): 0.34 ± 0.05 h⁻¹
  k(2,3) (secretion from renal epithelium to tubular lumen): 0.0009 ± 0.0005 h⁻¹
  k(3,2) (reabsorption from tubular fluid back to renal epithelium): 0.091 ± 0.063 h⁻¹
  k(2,1) (glomerular filtration of tacrolimus): 0.94 ± 0.76 mL/h
  k(3,1) (secretion from efferent arteriole to renal epithelium): 2368 ± 1404 mL/h
  fub (exchangeable fraction of tacrolimus in blood during glomerular filtration): 0.014 ± 0.015%
  Kp: 12.1 ± 0.3
[7]; CYP3A5 nonexpressors
  ER (extraction ratio of tacrolimus from the efferent arteriole): 4.3 ± 4.7%
  k(1,3) (back flux from renal epithelium to efferent arteriole): 0.36 ± 0.39 h⁻¹
  k(2,3) (secretion from renal epithelium to tubular lumen): 0.0012 ± 0.0008 h⁻¹
  k(3,2) (reabsorption from tubular fluid back to renal epithelium): 0.106 ± 0.057 h⁻¹
  k(2,1) (glomerular filtration of tacrolimus): 0.77 ± 0.51 mL/h
  k(3,1) (secretion from efferent arteriole to renal epithelium): 1800 ± 1734 mL/h
  fub (exchangeable fraction of tacrolimus in blood during glomerular filtration): 0.011 ± 0.006%
  Kp: 23.4 ± 0.04
[7]; all subjects
  in vivo fub′ (exchangeable fraction in blood) estimated from modeling: 0.012 ± 0.011%
[7]; steady-state tissue-to-blood partitioning ratio
  Kp,kidney in CYP3A5 expressors as % of that calculated for nonexpressors: ~50%
[8]
  Kp,kid: 12.2
[1]; CYP3A5 expressors (N=12)
  CLurinary (based on AUCblood): 2.01 ± 0.57 mL/h
  CLurinary (based on AUCplasma): 50.15 ± 13.67 mL/h
  CLurinary/eGFR (based on AUCblood): 0.028 ± 0.012%
  CLurinary/eGFR (based on AUCplasma): 0.58 ± 0.28%
[1]; CYP3A5 nonexpressors (N=12)
  CLurinary (based on AUCblood): 3.15 ± 1.69 mL/h
  CLurinary (based on AUCplasma): 97.71 ± 59.89 mL/h
  CLurinary/eGFR (based on AUCblood): 0.048 ± 0.032%
  CLurinary/eGFR (based on AUCplasma): 1.48 ± 1.10%
[1]; CYP3A5 expressors
  total amount of tacrolimus excreted in urine as unchanged drug over 96 hours: 271.6 ± 147.4 ng
[1]; CYP3A5 nonexpressors
  total amount of tacrolimus excreted in urine as unchanged drug over 96 hours: 642.6 ± 349.6 ng
[1]; based on blood AUC
  mean apparent urinary tacrolimus clearance, lower in CYP3A5 expressors compared to nonexpressors: 36%
[1]; based on plasma AUC
  mean apparent urinary tacrolimus clearance, lower in CYP3A5 expressors compared to nonexpressors: 49%
[1]; expressors vs nonexpressors
  AUC0–96 Difference (%): −35.2%
  AUC0–inf Difference (%): −36.5%
  CL/F Difference (%): 54.8%
  CLurinary (based on AUCblood) Difference (%): −36.2%
  CLurinary (based on AUCplasma) Difference (%): −48.7%
  CLurinary/eGFR (based on AUCblood) Difference (%): −41.7%
  Clast Difference (%): −46.2%
[1]; mean, expressors vs nonexpressors
  oral tacrolimus clearance (CL/F), fold higher in CYP3A5 expressors compared to nonexpressors: 1.6 fold
[1]; nonexpressors vs expressors
  Clast (blood concentration at 96 hours), fold higher in CYP3A5 nonexpressors compared to expressors: 1.9 fold
clinical; t1/2, CYP3A5 expressors (N=12)
  half-life: 29.9 ± 4.8 h
clinical; t1/2, CYP3A5 nonexpressors (N=12)
  half-life: 31.7 ± 4.3 h
clinical; CYP3A5 expressors (N=12)
  concentration at 96 h: 0.2 ± 0.1 ng/mL
clinical; CYP3A5 nonexpressors (N=12)
  concentration at 96 h: 0.4 ± 0.1 ng/mL
